Results taken from ChEMBL document CHEMBL5046231, “Modulation of Naturally Occurring Linear Dipeptide Chirality to Reduce the Affinity for Oligopeptide Transporter 1 and Increase Intestinal Stability for an Enhanced Colon-Targeting Effect in the Treatment of Inflammatory Bowel Disease: An Application of trans-4-l-Hydroxyprolyl-l-serine” (J Med Chem, 2022).
Active and inactive are the calls of the source. The calls are words filed in the database; no cut-off is given here.

What was measured:
Mus musculus [1] = assay: Anti-colitis activity against DSS-induced colitis in C57BL/6 mouse model assessed as decrease in MPO level in colon at 50 mg/kg, po administered via gavage twice a day for 10 days; type: functional; set-up: scale not given: the % may be the effect or the level left; settings: time 10 day
Mus musculus [2] = assay: Antiinflammatory activity in DSS-induced C57BL/6 mouse model of colitis assessed as decrease in IL-1beta level 25 to 100 mg/kg, po administered via gavage twice a day for 10 days; type: functional, organism-based; settings: dose 25-100 mg/kg, time 10.0 day
Mus musculus [3] = assay: Antiinflammatory activity in DSS-induced C57BL/6 mouse model of colitis assessed as increase in IL-10 level 25 to 100 mg/kg, po administered via gavage twice a day for 10 days; type: functional, organism-based; settings: dose 25-100 mg/kg, time 10.0 day
Mus musculus [4] = assay: Anti-colitis activity against DSS-induced C57BL/6 mouse model of colitis assessed as fold change in body weight recovery at 25 to 100 mg/kg, po administered via gavage twice a day for 10 days relative to SASP; type: functional; settings: dose 25-100 mg/kg; time 10 day
Mus musculus [5] = assay: Antiinflammatory activity in DSS-induced C57BL/6 mouse model of colitis assessed as decrease in TNF-alpha level 25 to 100 mg/kg, po administered via gavage twice a day for 10 days; type: functional, organism-based; settings: dose 25-100 mg/kg, time 10.0 day
Mus musculus [6] = assay: Anti-colitis activity against DSS-induced colitis in C57BL/6 mouse model assessed as increase in colon length at 25 mg/kg, po administered via gavage twice daily for 10 days; type: functional, organism-based; settings: time 10.0 day
Mus musculus [7] = assay: Anti-colitis activity against DSS-induced colitis in C57BL/6 mouse model assessed as increase in colon length at 50 mg/kg, po administered via gavage twice a day for 10 days; type: functional, organism-based; settings: time 10.0 day
Mus musculus [8] = assay: Anti-colitis activity against DSS-induced colitis in C57BL/6 mouse model assessed as reduction colonic damage at 50 mg/kg, po administered via gavage twice a day for 10 days; type: functional, organism-based; settings: time 10.0 day
Mus musculus [9] = assay: Anti-colitis activity against DSS-induced C57BL/6 mouse model of colitis assessed as assessed as body weight recovery at 50 mg/kg, po administered via gavage DSS stimulation for 5 days followed by compound addition once daily for 10 days; type: functional, organism-based; settings: time 10.0 day
Mus musculus [10] = assay: Antiinflammatory activity in DSS-induced C57BL/6 mouse model of colitis assessed as decrease in […] level 25 to 100 mg/kg, po administered via gavage twice a day for 10 days; type: functional, organism-based; settings: dose 25-100 mg/kg, time 10.0 day
Mus musculus [11] = assay: Anti-colitis activity against DSS-induced colitis in C57BL/6 mouse model assessed as fold decrease in disease activity index at 50 mg/kg, po administered via gavage twice daily for 10 days relative to control; type: functional; settings: time 10 day
Mus musculus [12] = assay: Anti-colitis activity against DSS-induced colitis in C57BL/6 mouse model assessed as body weight recovery at 50 mg/kg, po administered via gavage twice a day for 10 days; type: functional, organism-based; settings: time 10.0 day
Mus musculus [13] = assay: Anti-colitis activity against DSS-induced C57BL/6 mouse model of colitis assessed as fold change in colon length at 25 to 100 mg/kg, po administered via gavage twice a day for 10 days relative to SASP; type: functional; settings: dose 25-100 mg/kg; time 10 day
Mus musculus [14] = assay: Anti-colitis activity against DSS-induced colitis in C57BL/6 mouse model assessed as assessed as recovery of body weight at 25 mg/kg, po administered via gavage twice daily for 10 days; type: functional, organism-based; settings: time 10.0 day
Mus musculus [15] = assay: Anti-colitis activity against DSS-induced C57BL/6 mouse model of colitis assessed as increase in colon length at 50 mg/kg, po administered via gavage DSS stimulation for 5 days followed by compound addition once daily for 10 days; type: functional, organism-based; settings: time 10.0 day
Mus musculus [16] = assay: Anti-colitis activity against DSS-induced C57BL/6 mouse model of colitis assessed as fold change in disease activity index at 25 to 100 mg/kg, po administered via gavage twice a day for 10 days relative to SASP; type: functional; settings: dose 25-100 mg/kg; time 10 day

Structure (SMILES): O=C(O)c1cc(/N=N/c2ccc(S(=O)(=O)Nc3ccccn3)cc2)ccc1O [SULFASALAZINE]
- Activity (Mus musculus [1]): 27.3%
- Activity (Mus musculus [2]): Active
- Activity (Mus musculus [3]): Active
- fold change (FC) (Mus musculus [4]): 2.1
- Activity (Mus musculus [5]): Active
- Activity (Mus musculus [6]): Active
- Activity (Mus musculus [7]): Active
- Activity (Mus musculus [8]): Active
- Activity (Mus musculus [9]): Active
- Activity (Mus musculus [10]): Active
- fold change (FC) (Mus musculus [11]): 1.5
- Activity (Mus musculus [12]): Active
- fold change (FC) (Mus musculus [13]): 1.2
- Activity (Mus musculus [14]): Active
- Activity (Mus musculus [15]): Active
- fold change (FC) (Mus musculus [16]): 2.3
